# Assay results: patent EP4682144A1, “SOLID FORM OF PYRROLIDONE DERIVATIVE AS GLUCOKINASE ACTIVATOR” (Hua Medicine (Shanghai) Ltd., priority 2023, dated 2024)
# Structures can show the parent of a compound that is named as a salt.
# What was measured:
# [1] = Pharmacokinetic study in rats (IV and PO); assay type: in vivo, SD male rats; details: Sprague-Dawley, rat, plasma, 30 mg/kg; SD male rats, PO, analyte parent drug HMS5552
# Experimental: Each group was divided into 2 subgroups (intravenous bolus group (IV) and gavage group (PO)).
# Whole blood samples (about 0.2 mL per time point) were collected at pre-dose (0), 0.083, 0.25, 0.5, 1, 2, 4, 8, 12, and 24 hours post-dose by jugular vein puncture. All the blood samples were immediately transferred into labeled pre-chilled commercial microcentrifuge tubes containing 4 µL of 0.5M K2-EDTA and 10 µL of cocktail stabilizer. Samples were placed on wet ice until centrifugation (within 30 min). Plasma samples were then prepared by centrifuging the blood samples at approximately 4 °C, 3200xg for 10 minutes. Supernatant plasma was pipetted, then quickly frozen over dry ice, and then kept at -60 °C or lower temperature until LC-MS/MS analysis.
# The plasma concentrations were subjected to a non-compartmental pharmacokinetic analysis by using the WinNonlin™ software program (version 6.3).
# C57BL/6J mice [2] = assay: Plasma insulin level test during OGTT; assay type: in vivo; details: each dose group of HMS5552 versus vehicle control group
# Experimental: (§1) There were 7 groups of mice, with 8 mice in each group. […] Oral glucose tolerance test (OGTT) was performed 1 hour after administration. The blood glucose level in mice was tested before administration (-60 min), before sugar administration (0 min), and at 15 min, 30 min, 60 min, and 120 min after sugar administration. In addition, 40 µl of blood was collected from the tail tip before sugar administration (0 min) and at 15 min after sugar administration to collect the plasma for an insulin level test.
# (§2) All data was transferred into an Excel document. The blood glucose results were expressed in mg/dL and expressed as MEAN ± SEM. Differences between multiple groups were analyzed using Dunnett's method in one-way analysis of variance (ANOVA) or two-way analysis of variance (ANOVA) with Graphpad Prism 8 software for comparison, and the differences were considered statistically significant when the P value was less than 0.05.
# C57BL/6J mice [3] = assay: Oral glucose tolerance test (OGTT), glucose-lowering effect; assay type: in vivo; details: versus vehicle control group
# Experimental: as §1, §2
# [4] = Dynamic vapour sorption (DVS) test; assay type: physicochemical; details: relative humidity of less than or equal to 90%; listed as crystal form B of the hydrochloride
# Experimental: A certain amount of powder was taken and put into a sample pan, and hygroscopicity of the sample was evaluated with DVS according to the following instrument method:
# [5] = High-temperature and high-humidity stability test of hydrochloride crystal form B; assay type: physicochemical
# [6] = Preliminary solubility test in solvents at room temperature; assay type: physicochemical; details: for Solubility (mg/mL): listed as crystal form B of the hydrochloride
# Experimental: Table 10 Solubility range of the starting material sample at room temperature
# The solubility range in the corresponding solvent was calculated based on the mass of the sample and the volume of the added solvent, as shown in Table 28. The data were used as a base to guide the selection of solvent in screening tests. Table 28 Preliminary solubility of crystal form A of the free state at room temperature
# The solubility range in the corresponding solvent was calculated based on the mass of the sample and the volume of the added solvent, as shown in Table 35. The data were used as a base to guide the selection of solvent in the screening tests.
structure (smiles),measurement,setting,value
"CC(C)C[C@@H](C(=O)Nc1ccn(C[C@@H](O)CO)n1)N1CC(Oc2ccccc2Cl)=CC1=O [HMS5552, (S)-2-(4-(2-chlorophenoxy)-2-oxo-2,5-dihydro-1H-pyrrol-1-yl)-N-(1-((R)-2,3-dihydroxypropyl)-1H-pyrazol-3-yl)-4-methylpentanamide, reference compound]",bioavailability,[1],51.2%
same,insulin levels at 0 min and 15 min,C57BL/6J mice [2],"slightly higher than those in the vehicle control group, without significant difference"
same,blood glucose level at 0 min (pre-glucose),"C57BL/6J mice [3]; C57BL/6J mice, oral, 1 hour after administration, dose-response relationship",generally lower than that of the vehicle control group
same,blood glucose values after glucose administration,"C57BL/6J mice [3]; HMS5552-40mg/kg group, at 30 min, 60 min, and 120 min",significantly lower than that of the vehicle control group
CC(C)C[C@@H](C(=O)Nc1ccn(C[C@@H](O)COC(=O)c2cccnc2)n1)N1CC(Oc2ccccc2Cl)=CC1=O [Hydrochloride crystal form B],moisture-induced weight gain,[4],less than 0.7%
same,Purity (Area%),"[5]; 25 °C/75%RH, Day 2",99.72 Area%
same,Purity (Area%),"[5]; 25 °C/75%RH, Day 5",99.56 Area%
same,Purity (Area%),"[5]; 25 °C/75%RH, Day 9",99.64 Area%
same,Purity (Area%),"[5]; 40°C/75%RH, Day 2",99.67 Area%
same,Purity (Area%),"[5]; 40°C/75%RH, Day 5",99.38 Area%
same,Purity (Area%),"[5]; 40°C/75%RH, Day 9",99.33 Area%
same,Purity (Area%),"[5]; 60°C, Day 2",99.55 Area%
same,Purity (Area%),"[5]; 60°C, Day 5",99.43 Area%
same,Purity (Area%),"[5]; 60°C, Day 9",99.55 Area%
same,Purity (Area%),"[5]; 80°C, Day 2",95.20 Area%
same,Purity (Area%),"[5]; 80°C, Day 5",94.65 Area%
same,Purity (Area%),"[5]; 80°C, Day 9",96.80 Area%
same,Purity (Area%),[5]; Starting point (table 25 °C/75%RH / 40°C/75%RH),99.72 Area%
same,Purity (Area%),[5]; Starting point (table 60°C / 80°C),99.72 Area%
same,stability under the high-temperature and high-humidity conditions,[5]; compared with crystal form A of the free state,not as stable as crystal form A of the free state
same,Solubility (mg/mL),"[6]; 1,4-Dioxane, room temperature",S<1.0 mg/mL
same,solubility,"[6]; 2-methf, 25 °C, organic solvent or mixture, thermodynamic from solid, room temperature",< 1000 µg/mL
same,Solubility (mg/mL),"[6]; DMAc, room temperature",S>40.0 mg/mL
same,Solubility (mg/mL),"[6]; DMSO, room temperature",S>42.0 mg/mL
same,Solubility (mg/mL),"[6]; H2O, room temperature",S<1.0 mg/mL
same,Solubility (mg/mL),"[6]; MTBE, room temperature",S<1.0 mg/mL
same,Solubility (mg/mL),"[6]; MeOH, room temperature (25±3 °C)",S>36.0 mg/mL
same,Solubility (mg/mL),"[6]; NMP, room temperature",S>42.0 mg/mL
same,Solubility (mg/mL),"[6]; Toluene, room temperature",S<1.0 mg/mL
same,solubility,"[6]; acetone, 25 °C, organic solvent or mixture, thermodynamic from solid, room temperature",< 1000 µg/mL
same,solubility,"[6]; acn, 25 °C, organic solvent or mixture, thermodynamic from solid, room temperature",< 1100 µg/mL
same,solubility,"[6]; acn/h2o (1:1) v/v, room temperature",> 40000 µg/mL
same,solubility,"[6]; chcl3, 25 °C, organic solvent or mixture, thermodynamic from solid, CHCl3, room temperature",< 1100 µg/mL
same,solubility,"[6]; dcm, 25 °C, organic solvent or mixture, thermodynamic from solid, room temperature",< 1000 µg/mL
same,solubility,"[6]; dmf/h2o (1:1) v/v, room temperature",22000 to 44000 µg/mL
same,solubility,"[6]; etoac, 25 °C, organic solvent or mixture, thermodynamic from solid, room temperature",< 1000 µg/mL
same,solubility,"[6]; etoh/h2o (1:1) v/v, room temperature",22000 to 44000 µg/mL
same,solubility,"[6]; ipa, 25 °C, organic solvent or mixture, thermodynamic from solid, room temperature",< 1100 µg/mL
same,solubility,"[6]; ipa/h2o (1:1) v/v, room temperature",> 40000 µg/mL
same,solubility,"[6]; ipac, 25 °C, organic solvent or mixture, thermodynamic from solid, room temperature",< 1000 µg/mL
same,solubility,"[6]; meoh/h2o (1:1) v/v, room temperature",11000 to 22000 µg/mL
same,solubility,"[6]; mibk, 25 °C, organic solvent or mixture, thermodynamic from solid, room temperature",< 1000 µg/mL
same,Solubility (mg/mL),"[6]; n-Heptane, room temperature",S<1.0 mg/mL
same,solubility,"[6]; thf, 25 °C, organic solvent or mixture, thermodynamic from solid, room temperature",< 1100 µg/mL
same,solubility,"[6]; thf/h2o (1:1) v/v, room temperature",20000 to 40000 µg/mL
